Laboratory results: patent publication US20160075682A1, “INHIBITORS OF NICOTINAMIDE PHOSPHORIBOSYLTRANSFERASE, COMPOSITIONS, PRODUCTS AND USES THEREOF” (UNIVERSITÀ DEGLI STUDI DEL PIEMONTE ORIENTALE "AMEDEO …, priority 2013, published 2016)

Legend:
[1] = tested on: DNBS-induced colitis in BALB/c mice; experiment: Experimental colitis induced by DNBS; type: in vivo; conditions: i.p.
Description: Animal work was authorized by the local ethical committee for animal studies (Università del Piemonte Orientale). BALB/c mice (Harlan Nossan, Milan, Italy) were anesthetized by enflurane. Dinitrobenzene sulfonic acid (DNBS; 4 mg in 100 μl of 50% ethanol) was injected into the rectum through a catheter inserted 4.5 cm proximally to the anus. Carrier alone (100 μl of 50% ethanol) was administered in control experiments. Thereafter, the animals were kept for 15 minutes in a Trendelenburg position to avoid reflux. Treatment with either solvent alone or drugs was done immediately after induction and thereafter twice a day. […] On Day 4, the animals were weighed and anaesthetized with chloral hydrate, and the abdomen was opened by a midline incision. The colon was removed, freed from surrounding tissues, opened along the antimesenteric border, rinsed, weighed, and processed for histology, biochemical measurements and immunohistochemistry. Colon damage (macroscopic damage score) was evaluated and scored by two independent observers according to the following criteria: 0, no damage; 1, localized hyperemia without ulcers; 2, linear ulcers with no significant inflammation; 3, linear ulcers with inflammation at one site; 4, two or more major sites of inflammation and ulceration extending >1 cm along the length of the colon; and 5-8, one point is added for each centimeter of ulceration beyond an initial 2 cm. Biochemical and histological analysis also included TNFalpha measurements and myeloperoxidase (MPO) measurements by ELISA assay, and VEGF, NAMPT, COX-2 measurements by immunoblotting. (Esposito E, Mazzon E, Paterniti I, Dal Toso R, Pressi G, Caminiti R, Cuzzocrea S. PPAR-alpha Contributes to the Anti-Inflammatory Activity of Verbascoside in a Model of Inflammatory Bowel Disease in Mice. PPAR Res. 2010; 2010:917312).
(§1) As previously described, the colon of DNBS- or dextran treated animals was removed after the induction of colitis. Compounds of formula (I) were administered intraperitoneally (i.p.).

SH-SY5Y, HeLa = experiment: MTT cell proliferation assay and trypan blue count (cell viability); type: cell-based; conditions: cells treated for 48 and 72 hours; read-out: IC50 values (inhibition of cellular proliferation, MTT assay and trypan blue assay)
Description: Cell based assays were used to evaluate the possible cytotoxic effects of some compounds. To measure cytotoxic effects two different methods were used, a MTT cell proliferation assay and trypan blue count.
The Trypan blue assay is used to determine the number of viable cells present in a cell suspension. […] Briefly, 8×10^5 cells (SH-SY5Y, HeLa; obtained from ATCC, LGC standards, Sesto San Giovanni) were seeded in 24-well plates and treated for 48 and 72 hours. After the treatments, cells were stained with trypan blue and counted.
To analyze cell viability was used the colorimetric 3-(4,5-dimethylthiazol-2-yl)-2,5-diphenyltetrazolium bromide (MTT) method. The assay is based on the cleavage of the yellow tetrazolium salt MTT to purple formazan crystals by metabolic active cells. Since reduction of MTT can only occur in metabolically active cells, the level of activity is a measure of the viability of cells and conversely the cytotoxic effects of various treatments. Briefly, 8×10^5 cells (SH-SY5Y, code number CRL-2266; and HeLa, code number CCL-2) were seeded in 24-well plates and treated for 48 and 72 hours. Compounds were dissolved in DMSO and were added to the cells to give a final DMSO concentration no greater than 0.5%. Cells were washed once in Locke buffer and 300 μl of MTT (250 μg/ml in Locke buffer) were added before returning the cells to the incubator for 1 h to allow the formation of the purple formazan crystals. After 1 h, 600 μl of isopropanol/0.1 M HCl were added to each well, and the absorbance was read at 570 nm in a plate reader (Victor3V, PerkinElmer Life Sciences). For some compounds a dose response curve and IC50 for the effects on cell viability and proliferation were calculated. Cell lines used were originally purchased from ATCC (LGC standards. Sesto San Giovanni).
To evaluate the ability of each compound to inhibit cellular proliferation, cells were seeded in 24-well plates and treated for 48 and 72 hours. After the treatments the MTT assay and trypan blue assay were performed.

NAMPT = target: T1, NAMPT (Homo sapiens, UniProt P43490); experiment: Direct inhibition of NAMPT enzymatic activity (Cyclex NAMPT colorimetric Assay Kit); type: biochemical; conditions: as assessed with a cycling assay
T1 construct: endogenous in cells; host or cells: SH-SY5Y and HeLa
T1 sequence (P43490 whole entry): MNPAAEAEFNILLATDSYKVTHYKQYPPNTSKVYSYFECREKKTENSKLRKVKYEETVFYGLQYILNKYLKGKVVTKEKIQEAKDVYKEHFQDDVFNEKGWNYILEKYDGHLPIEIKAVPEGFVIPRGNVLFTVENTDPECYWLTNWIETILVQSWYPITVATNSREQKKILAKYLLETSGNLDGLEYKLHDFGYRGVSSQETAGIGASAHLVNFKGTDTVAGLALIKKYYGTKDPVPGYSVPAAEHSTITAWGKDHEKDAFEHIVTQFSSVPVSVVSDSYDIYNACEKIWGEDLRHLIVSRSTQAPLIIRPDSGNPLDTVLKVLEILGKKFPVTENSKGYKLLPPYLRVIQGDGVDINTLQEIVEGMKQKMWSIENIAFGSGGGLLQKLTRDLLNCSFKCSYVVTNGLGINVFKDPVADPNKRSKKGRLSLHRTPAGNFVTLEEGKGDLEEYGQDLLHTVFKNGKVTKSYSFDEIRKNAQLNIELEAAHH
Description: Determination of the direct activity of compounds on NAMPT was performed using a commercial kit, Cyclex NAMPT colorimetric Assay Kit.

[2] = tested on: Dextran-induced colitis in C57/BJ6 mice; experiment: Experimental colitis induced by dextran sulfate sodium (DSS); type: in vivo; conditions: i.p., doses of between 20 mg/Kg and 500 mg/Kg
Description: Animal work was authorized by the local ethical committee for animal studies (Università del Piemonte Orientale). Colitis was induced in C57/BJ6 mice (Harlan Nossan, Milan, Italy) by addition of DSS (2%) to their daily drinking water for 7 days followed by a 3-day recovery period without DSS. The severity of colitis was assessed using these set of criteria: (1) clinical index (daily changes in body weight; diarrhea and rectal bleeding); (2) macroscopic evidence of colitis (shortening of colon length). On day 10 of the experiment, animals were sacrificed. Treatments were performed with either solvent alone or drugs once a day for the entire duration of the experiments from day 1 to day 7. The colon lengths were measured and colon tissues were harvested for biochemical measurements, histopathological assessment and scoring. (Tang Y, Preuss F, Turek F W, Jakate S, Keshavarzian A. Sleep deprivation worsens inflammation and delays recovery in a mouse model of colitis. Sleep Med. 2009 June; 10(6):597-603).
as §1

[3] = DNBS-treated mice, between 20 mg/Kg and 500 mg/Kg, compared to untreated colitis mice

IC50 (SH-SY5Y, HeLa): < 0.3 µM
inhibition of the enzymatic activity of NAMPT (NAMPT): able to inhibit
Compound: O=C(O)c1ccccc1-c1ccccc1C(=O)NCCCCCCCn1cc(-c2cccnc2)nn1 [2′-((7-(4-(pyridin-3-yl)-1H-1,2,3-triazol-1-yl)heptyl)carbamoyl)-[1,1′-biphenyl]-2-carboxylic acid]
MPO in the colon [1, 3]: able to reduce
NAMPT in the colon [1, 3]: able to reduce
TNFalpha in the colon [1, 3]: able to reduce
VEGF in the colon [1, 3]: able to reduce
protection from DNBS-induced colitis as assessed by the macroscopic damage score ([1]; doses of between 20 mg/Kg and 500 mg/Kg): able to protect
protection from Dextran-induced colitis as assessed by the macroscopic damage score [2]: able to protect
